In ChEMBL document CHEMBL5634123, “Design and synthesis of 1H-benzo[d]imidazole selective HDAC6 inhibitors with potential therapy for multiple myeloma” (Eur J Med Chem, 2023):
pIC50: −log10 of the molar value. Active and inactive are the calls of the source. The calls are words filed in the database; no cut-off is given here.

Columns and labels:
[1] = system: RPMI-8226; assay: Induction of cell cycle arrest at G1 phase in human RPMI-8226 cells at 0.5 uM incubated for 24 hrs by PI staining based flow cytometry (reference value: 19.2 %); format: functional
[2] = system: RPMI-8226; assay: Induction of apoptosis in human RPMI-8226 cells assessed as late apoptotic cells at 0.5 uM incubated for 24 hrs by Annexin V-FITC/PI staining based flow cytometry (reference value: 2.78 %); format: functional
[3] = system: MDA-MB-468; assay: cells; details: Homo sapiens, MDA-MB-468, 24 h
[4] = system: RPMI-8226; assay: Induction of cell cycle arrest at G1 phase in human RPMI-8226 cells at 2.5 uM incubated for 24 hrs by PI staining based flow cytometry (reference value: 19.2 %); format: functional
[5] = system: RPMI-8226; assay: Induction of apoptosis in human RPMI-8226 cells assessed as early apoptotic cells at 0.5 uM incubated for 24 hrs by Annexin V-FITC/PI staining based flow cytometry (reference value: 5.34 %); format: functional
[6] = Half life in mouse at 1 mg/kg, iv; format: ADME, organism-based; details: in vivo
[7] = system: RPMI-8226; assay: Induction of apoptosis in human RPMI-8226 cells assessed as viable cells at 2.5 uM incubated for 24 hrs by Annexin V-FITC/PI staining based flow cytometry (reference value: 90.98 %); format: functional; details: read-out: Activity
[8] = Toxicity in Balb/c nude mouse xenografted with human RPMI-8226 cells assessed as adverse effect on liver at 10 to 40 mg/kg, po qd for 21 days administered consecutively by H and E staining based analysis; format: organism-based; details: in vivo, 504 h, dose 10-40 mg/kg, time 21 day
[9] = biological target: Histone deacetylase 3 (Homo sapiens, UniProt O15379); assay: Inhibition of HDAC3 (unknown origin) preincubated for 10 mins followed by substrate addition by fluorescence based assay
Chain of Histone deacetylase 3 (O15379 whole entry): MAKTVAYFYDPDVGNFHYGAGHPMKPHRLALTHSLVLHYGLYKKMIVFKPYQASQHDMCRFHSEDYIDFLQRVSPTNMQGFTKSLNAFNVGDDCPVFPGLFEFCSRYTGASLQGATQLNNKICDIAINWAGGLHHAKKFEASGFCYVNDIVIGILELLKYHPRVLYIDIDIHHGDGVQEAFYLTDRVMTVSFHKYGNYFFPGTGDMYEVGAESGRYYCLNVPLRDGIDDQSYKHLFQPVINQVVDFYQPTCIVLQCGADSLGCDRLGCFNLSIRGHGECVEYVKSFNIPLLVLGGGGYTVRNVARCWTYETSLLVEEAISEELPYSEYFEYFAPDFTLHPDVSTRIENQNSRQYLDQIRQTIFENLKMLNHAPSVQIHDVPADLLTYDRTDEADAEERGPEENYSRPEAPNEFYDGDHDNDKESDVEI

[10] = Toxicity in Balb/c nude mouse xenografted with human RPMI-8226 cells assessed as adverse effect on serum uric acid level at 10 to 40 mg/kg, po qd for 21 days administered consecutively; format: organism-based; details: in vivo, 504 h, dose 10-40 mg/kg, time 21 day
[11] = Clearance in mouse at 1 mg/kg, iv; format: ADME, organism-based; details: in vivo
[12] = biological target: T1, Histone deacetylase 11 (Homo sapiens, UniProt Q96DB2); assay: Inhibition of HDAC11 (unknown origin) preincubated for 10 mins followed by substrate addition by fluorescence based assay
T1 sequence (Q96DB2 whole entry): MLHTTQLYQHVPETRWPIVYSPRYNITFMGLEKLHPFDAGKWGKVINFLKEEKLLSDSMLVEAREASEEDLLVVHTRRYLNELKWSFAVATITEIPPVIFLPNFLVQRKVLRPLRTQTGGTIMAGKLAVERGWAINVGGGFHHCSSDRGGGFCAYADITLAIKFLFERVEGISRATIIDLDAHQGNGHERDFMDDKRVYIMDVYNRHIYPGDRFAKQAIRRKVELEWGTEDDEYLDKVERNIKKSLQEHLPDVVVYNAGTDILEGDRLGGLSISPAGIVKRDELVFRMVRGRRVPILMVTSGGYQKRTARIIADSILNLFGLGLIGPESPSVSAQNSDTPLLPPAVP

[13] = system: RPMI-8226; assay: Induction of apoptosis in human RPMI-8226 cells assessed as necrotic cells at 0.5 uM incubated for 24 hrs by Annexin V-FITC/PI staining based flow cytometry (reference value: 0.90 %); format: functional
[14] = system: RPMI-8226; assay: Effect on Ac-H4 expression in human RPMI-8226 cells at 0.1 to 2.5 uM incubated for 24 hrs by Western blot analysis; format: functional, cell-based; details: dose 0.1-2.5 µM
[15] = system: RPMI-8226; assay: Induction of apoptosis in human RPMI-8226 cells assessed as increase in APAF-1 expression at 0.1 to 2.5 uM incubated for 24 hrs by Western blot analysis; format: functional, cell-based; details: dose 0.1-2.5 µM
[16] = system: RPMI-8226; assay: Induction of apoptosis in human RPMI-8226 cells assessed as late apoptotic cells at 0.1 uM incubated for 24 hrs by Annexin V-FITC/PI staining based flow cytometry (reference value: 2.78 %); format: functional
[17] = Toxicity in Balb/c nude mouse xenografted with human RPMI-8226 cells assessed as adverse effect on heart at 10 to 40 mg/kg, po qd for 21 days administered consecutively by H and E staining based analysis; format: organism-based; details: in vivo, 504 h, dose 10-40 mg/kg, time 21 day
[18] = biological target: T2, Histone deacetylase 7 (Homo sapiens, UniProt Q8WUI4); assay: Inhibition of HDAC7 (unknown origin) preincubated for 10 mins followed by substrate addition by fluorescence based assay
T2 sequence (Q8WUI4 whole entry): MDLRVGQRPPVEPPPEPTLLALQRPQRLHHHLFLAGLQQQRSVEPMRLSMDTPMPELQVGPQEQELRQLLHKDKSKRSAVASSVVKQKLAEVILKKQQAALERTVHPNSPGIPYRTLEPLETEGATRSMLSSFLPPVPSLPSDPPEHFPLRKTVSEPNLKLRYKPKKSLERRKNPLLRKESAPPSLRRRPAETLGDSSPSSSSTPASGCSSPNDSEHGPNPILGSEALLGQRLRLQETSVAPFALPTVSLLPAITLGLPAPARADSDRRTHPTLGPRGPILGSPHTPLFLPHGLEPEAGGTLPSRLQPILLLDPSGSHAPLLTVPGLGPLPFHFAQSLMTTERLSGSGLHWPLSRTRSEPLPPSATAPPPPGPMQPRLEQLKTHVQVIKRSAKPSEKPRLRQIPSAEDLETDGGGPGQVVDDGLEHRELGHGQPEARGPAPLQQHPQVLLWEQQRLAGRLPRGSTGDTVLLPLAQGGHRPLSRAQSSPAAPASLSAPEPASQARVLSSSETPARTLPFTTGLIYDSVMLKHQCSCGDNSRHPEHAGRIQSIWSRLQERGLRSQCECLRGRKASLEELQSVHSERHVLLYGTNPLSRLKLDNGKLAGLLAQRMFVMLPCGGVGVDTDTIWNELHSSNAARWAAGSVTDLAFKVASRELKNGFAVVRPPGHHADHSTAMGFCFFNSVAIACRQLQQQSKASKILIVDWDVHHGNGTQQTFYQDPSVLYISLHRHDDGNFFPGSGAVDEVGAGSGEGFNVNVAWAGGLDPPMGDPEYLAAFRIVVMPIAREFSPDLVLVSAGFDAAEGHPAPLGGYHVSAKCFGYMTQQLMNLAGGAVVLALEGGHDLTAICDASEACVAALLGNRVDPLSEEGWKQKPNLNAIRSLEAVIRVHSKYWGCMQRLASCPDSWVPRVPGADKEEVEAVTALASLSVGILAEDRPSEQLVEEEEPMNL

[19] = system: RPMI-8226; assay: Induction of apoptosis in human RPMI-8226 cells assessed as viable cells at 0.5 uM incubated for 24 hrs by Annexin V-FITC/PI staining based flow cytometry (reference value: 90.98 %); format: functional; details: read-out: Activity
[20] = system: RPMI-8226; assay: Induction of apoptosis in human RPMI-8226 cells assessed as early apoptotic cells at 2.5 uM incubated for 24 hrs by Annexin V-FITC/PI staining based flow cytometry (reference value: 5.34 %); format: functional
[21] = system: RPMI-8226; assay: Antitumor activity against human RPMI-8226 cells xenografted in Balb/c nude mouse assessed as ratio of tumor to control at 40 mg/kg, po qd for 21 days administered consecutively relative to control; format: functional; details: time 21 day

Cn1c([C@@H](Cc2ccccc2)NCc2ccccc2)nc2cc(C(=O)NO)ccc21
Activity [1]: 24.5% | Activity [2]: 4.24% | pIC50 [3]: < 4.30 | Activity [4]: 26.8% | Activity [5]: 14.04% | half-life [6]: 41.9 min | viability at 2.5 µM [7]: 76.5% | Activity [8]: Non-Toxic | pIC50 [9]: 5.74 | Activity [10]: Non-Toxic | clearance [11]: 82.9 mL/min/kg | pIC50 [12]: 6.01 | Activity [13]: 0.53% | Activity [14]: inactive | Activity [15]: Active | Activity [16]: 4.28% | Activity [17]: Non-Toxic | pIC50 [18]: 5.91 | viability at 0.5 µM [19]: 81.2% | Activity [20]: 18.97% | T/C [21]: 34.8%
